We go through four molecules from patent US10150739B2, “Crystalline form of androgen receptor inhibitor and preparation method thereof” (priority 2015, dated 2018).

Series [1] relates to AIPC. The note with it: mouse; cited from earlier work.
Series [2] concerns AIPC. The conditions noted are these: human; cited from earlier work.
Series [3] is classed as physicochemical. The method, then:
The compound of formula (I) (0.5 g, 1.04 mmol) (prepared according to Example 1) and the compound of formula (I) (0.5 g, 1.04 mmol) (prepared according to Example 11) were added to a 25 mL one-necked flask, followed by addition of 4.0 mL of ethyl acetate-isopropyl ether (v:v=1:1). The mixture was pulped at room temperature, then filtered and dried to obtain a solid (872 mg, yield: 87.2%).
The compound of formula (I) (0.5 g, 1.04 mmol) (prepared according to Example 1) and the compound of formula (I) (0.5 g, 1.04 mmol) (prepared according to Example 12) were added to a 25 mL one-necked flask, followed by addition of 4.0 mL of ethyl acetate-isopropyl ether (v:v=1:1). The mixture was pulped at room temperature, then filtered and dried to obtain a solid (850 mg, yield: 85.0%).

Series [4] is classed as physicochemical. The method, then: Samplings were carried out on Day 5 and Day 10.
The source holds these as a separate data set.

The format of series [5] is physicochemical. The source holds these as a separate data set.
The format of series [6] is physicochemical. The conditions noted are these: for Crystal form / Purity: 25° C., RH 60%. The protocol: The sample was placed under conditions of 25° C., RH 60% for a long period of time, and regular sampling was carried out to determine the purity.
The target in series [7] is T1, AR (Homo sapiens, UniProt P10275).
T1 sequence (P10275 1-920): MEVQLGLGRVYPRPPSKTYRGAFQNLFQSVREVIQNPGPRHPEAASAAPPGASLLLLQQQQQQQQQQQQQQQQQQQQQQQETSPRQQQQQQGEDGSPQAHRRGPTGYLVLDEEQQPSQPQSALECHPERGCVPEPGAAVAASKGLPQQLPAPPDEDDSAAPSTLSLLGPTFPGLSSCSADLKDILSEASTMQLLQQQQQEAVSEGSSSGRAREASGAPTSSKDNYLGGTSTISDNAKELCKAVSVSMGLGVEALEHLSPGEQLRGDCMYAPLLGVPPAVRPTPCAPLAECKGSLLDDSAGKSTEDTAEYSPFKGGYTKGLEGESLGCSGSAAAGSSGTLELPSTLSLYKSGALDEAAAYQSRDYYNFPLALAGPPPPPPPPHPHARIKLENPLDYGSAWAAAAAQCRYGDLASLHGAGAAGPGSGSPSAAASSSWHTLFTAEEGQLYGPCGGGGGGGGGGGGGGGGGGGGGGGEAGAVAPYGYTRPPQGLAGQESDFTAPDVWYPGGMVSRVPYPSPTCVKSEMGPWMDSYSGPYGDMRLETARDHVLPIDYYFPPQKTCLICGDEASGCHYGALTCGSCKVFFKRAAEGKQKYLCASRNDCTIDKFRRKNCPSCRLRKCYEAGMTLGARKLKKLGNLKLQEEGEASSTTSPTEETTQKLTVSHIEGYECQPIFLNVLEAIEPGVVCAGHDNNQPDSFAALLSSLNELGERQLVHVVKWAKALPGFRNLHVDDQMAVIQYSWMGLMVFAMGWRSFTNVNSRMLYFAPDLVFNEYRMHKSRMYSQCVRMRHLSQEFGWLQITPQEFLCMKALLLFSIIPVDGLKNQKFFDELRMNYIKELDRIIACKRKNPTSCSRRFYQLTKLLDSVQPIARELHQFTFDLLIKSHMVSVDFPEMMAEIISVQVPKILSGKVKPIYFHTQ
The note with it: compared with MDV-3100; cited from earlier work.

The target in series [8] is T1, AR. The note with it: cited from earlier work.
The target of another series is hERG (Homo sapiens, UniProt Q12809). The conditions noted are these: cited from earlier work.
Sequence of hERG (Q12809 whole entry): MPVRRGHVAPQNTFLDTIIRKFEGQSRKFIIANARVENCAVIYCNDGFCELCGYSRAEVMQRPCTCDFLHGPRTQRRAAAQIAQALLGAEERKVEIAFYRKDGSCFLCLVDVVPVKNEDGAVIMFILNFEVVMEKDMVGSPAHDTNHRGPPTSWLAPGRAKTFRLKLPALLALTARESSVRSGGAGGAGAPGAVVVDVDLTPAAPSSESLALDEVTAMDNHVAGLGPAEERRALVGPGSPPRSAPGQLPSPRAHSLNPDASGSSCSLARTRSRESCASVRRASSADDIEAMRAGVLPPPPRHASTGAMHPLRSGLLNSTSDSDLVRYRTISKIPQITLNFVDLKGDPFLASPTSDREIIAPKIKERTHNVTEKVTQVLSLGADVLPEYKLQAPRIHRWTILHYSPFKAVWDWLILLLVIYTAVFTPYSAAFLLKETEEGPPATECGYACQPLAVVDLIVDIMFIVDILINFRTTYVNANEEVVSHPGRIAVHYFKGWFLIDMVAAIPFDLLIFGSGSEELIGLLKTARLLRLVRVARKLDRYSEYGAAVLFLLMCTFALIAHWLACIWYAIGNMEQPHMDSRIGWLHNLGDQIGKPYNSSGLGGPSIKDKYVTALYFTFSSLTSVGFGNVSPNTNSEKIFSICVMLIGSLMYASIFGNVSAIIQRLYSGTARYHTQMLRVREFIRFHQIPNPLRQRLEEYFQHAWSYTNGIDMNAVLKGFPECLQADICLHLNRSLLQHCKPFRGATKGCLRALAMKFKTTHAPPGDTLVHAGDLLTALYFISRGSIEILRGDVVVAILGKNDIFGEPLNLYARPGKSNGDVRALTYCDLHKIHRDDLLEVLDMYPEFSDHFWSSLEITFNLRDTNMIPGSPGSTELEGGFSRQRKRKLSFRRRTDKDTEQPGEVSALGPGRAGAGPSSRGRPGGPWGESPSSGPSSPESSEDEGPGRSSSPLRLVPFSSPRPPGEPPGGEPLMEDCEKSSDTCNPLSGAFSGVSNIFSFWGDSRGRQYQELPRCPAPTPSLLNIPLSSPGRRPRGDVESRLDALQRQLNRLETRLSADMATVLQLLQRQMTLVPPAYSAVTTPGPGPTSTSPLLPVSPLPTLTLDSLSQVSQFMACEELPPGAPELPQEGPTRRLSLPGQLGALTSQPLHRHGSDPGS
The test system of series [9] is five major subtypes of CYP450. The conditions noted are these: cited from earlier work.
For series [10] the following is noted: rat; cited from earlier work.
For series [11] the following is noted: dog; cited from earlier work.
The conditions of series [12]: mouse, in vivo; cited from earlier work.

Read-outs that look alike come from different tables or passages of the source.

`CNC(=O)c1ccc(N2C(=S)N(c3ccc(C#N)c(C(F)(F)F)c3)C(=O)C2(C)C)cc1F` [MDV-3100]: the “inhibition of growth of AIPC” value in the series with AIPC [1] and with AIPC [2] was “can inhibit the growth of AIPC” each time.

Consider `CC1(C)C(=O)N(c2ccc(C#N)c(C(F)(F)F)c2)C(=S)N1c1ccc(OC[C@@H](O)CO)cc1` [crystal form III], for which the crystal form transformation entry in series [3] (pulped with crystal form I in ethyl acetate-isopropyl ether (v:v=1:1) at room temperature) is “can be transformed into crystal form I”.

For `CC1(C)C(=O)N(c2ccc(C#N)c(C(F)(F)F)c2)C(=S)N1c1ccc(OC[C@@H](O)CO)cc1` [Crystal form I, (S)-4-(3-(4-(2,3-dihydroxypropoxy)phenyl)-4,4-dimethyl-5-carbonyl-2-thioimidazolin-1-yl)-2-(trifluoromethyl)benzonitrile], the “purity as detected by HPLC” value in [4] (40° C., day 0) stood at 99.93%; in [4] (40° C., day 5), 99.91%; in series [4] (40° C., day 10), 99.91%; in [4] (60° C., day 0), 99.93%; in [4] (60° C., day 5), 99.92%; in [4] (60° C., day 10), 99.90%. Also, the “purity as detected by HPLC” value in series [4] (Lighting (4500 Lux), day 0) was 99.93%; in series [4] (Lighting (4500 Lux), day 5), 99.91%; in [4] (Lighting (4500 Lux), day 10), 99.91%; in series [4] (RH 75%, day 0), 99.93%; in [4] (RH 75%, day 5), 99.89%; in series [4] (RH 75%, day 10) it was 99.91%. Besides, the “purity as detected by HPLC” value turned out to be 99.93% in series [4] (RH 90%, day 0); 99.92% in series [4] (RH 90%, day 5); 99.92% in series [4] (RH 90%, day 10). In addition, the DSC peak stood at 158.26 °C in series [5] (after grinding treatment for 10 minutes), 158.17 °C in [5] (after heating treatment for 3 hours at 80° C.) and 158.33 °C in [5] (after pressing treatment). Moreover, the Crystal form result in series [6] (0 month), in series [6] (6 months) and in series [6] (36 months) was “Crystal form I” in each case. Besides, the Purity is 99.93% in [6] (0 month); 99.93% in series [6] (6 months); 99.93% in [6] (12 months); 99.93% in series [6] (24 months); 99.94% in [6] (36 months). Also, the long-term storage stability result in series [6] (36 months) is listed as “stable after placing under such conditions for 36 months”. Further, the “relative stability of crystal forms” value in series [3] is reported as “more stable”.

Take `CC1(C)C(=O)N(c2ccc(C#N)c(C(F)(F)F)c2)C(=S)N1c1ccc(OC[C@@H](O)CO)cc1` [compound of formula (I), (S)-4-(3-(4-(2,3-dihydroxypropoxy)phenyl)-4,4-methyl-5-carbonyl-2-thioimidazolin-1-yl)-2-(trifluoromethyl)benzonitrile]: the activity in vitro entry at AR [7] is “slightly better than that of MDV-3100”. For the same molecule, the AR agonist activity result at AR [8] (at 3 μM) and on AR [8] (at 10 μM) was “no AR agonist activity” throughout. The results for the IC50 (at hERG; in series [9]) were 24.8 µM and above 50 µM, respectively. For the same molecule, the figures for the in vivo exposure entry in series [10] and in series [11] were “comparable to that of MDV-3100” and “more than six times that of MDV-3100”, respectively. For the same molecule, the “ratio of drug concentration in brain tissue to drug concentration in plasma” value in series [12] is reported as “much lower than that of MDV-3100”.

By IC50 is commonly meant the concentration that inhibits the measured activity by half.
